Measured values as given in US20160324992A1, “IDENTIFICATION AND TREATMENT OF VULNERABLE PLAQUES” (OTTAWA HEART INSTITUTE RESEARCH CORPORATION, priority 2015, published 2016).
Read-outs that look alike come from different tables or passages of the source. Residues, ends and D or L forms follow the SMILES beside them. *: point of attachment. Cbz = O=C(OCc1ccccc1)*; CH2F = FC*

Columns and labels:
[1] = tested on: atherosclerotic lesions in ApoE−/− mice; assay: Ex vivo autoradiography of aorta, en face and Oil Red O comparison; format: in vivo, mouse; settings: ApoE−/− mice, ˜1 mCi of tracer, 2 hr post injection
Excerpt: Radiochemistry and ex vivo autoradiography study with ApoE^−/− mice. The tracer ^123I-Nec-1 (7-^123I-Nec-1) was synthesized by a Cu(I) catalyzed direct halogen exchange reaction with the precursor 7-Br-Nec-1 and Na^123I. Eight week-old female apolipoprotein E knockout (Apo E^−/−) mice were purchased from Charles River Laboratories and fed either a chow or western diet (TD.10885, Harlan Laboratories) for 2 months (total n=6 mice). 7-^123I-O-Nec-1 (37.0-55.5 MBq) was administrated intravenously into the mice under anesthetic. After 2 hr, the mice were euthanized and perfused with PBS followed by 10% formalin via left ventricle cannulation. Aorta was dissected from heart at the base using a dissecting microscope following removal of surrounding fat and connective tissue. En face specimens were immediately exposed to super resolution phosphor screens in an autoradiography cassette. After overnight exposure at room temperature, the screens were scanned with a Cyclone Phosphor Imager (Perkin Elmer, Downers Grove, Ill.). Images were analyzed using OptiQuant™ 5.0 software. The regions of interest (ROI) were drawn around the lesions on the aortic arch, and the counts in Digital Light Unit (DLU) and surface areas in mm^2 were measured. The DLU was converted to activity in μCi using a set of calibration standards with known activities, which were exposed and scanned on the same screen used for the aorta samples, as previously described (Zhao et al, 2007; Matter et al., 2006). The percentage injected dose (% ID) was calculated from dividing the activity (pCi) of the lesion by the injected activity. Activity density in % ID/m^2 was calculated and normalized by animal body weight to get % ID×kg/m^2. The areas of the lesions and the whole aortic arch in mm^2 were also recorded using the OptiQuant™ 5.0 software, and the percentage of lesion within the area of the aorta vessel wall was calculated.
Ex vivo autoradiography study with ApoE^−/− mice. Eight week-old female apolipoprotein E knockout (Apo E^−/−) mice were purchased from Charles River Laboratories (Charles River, Canada) and fed either a chow or western diet (TD.10885, Harlan Laboratories) for 2 months (n=3 per group). […] 7-^123I-O-Nec-1 (37.0-55.5 MBq) was administrated intravenously into the mice under anesthetic. After 2 hr, the mice were euthanized in a CO2 chamber. Using a Gilson Minipuls 2 peristaltic pump, the mice were perfused with 20 mL phosphate buffered saline (PBS) followed by 10 mL of 10% formalin via left ventricle cannulation. Perfusate was drained from a cut within the right atrium. Aorta was dissected from heart at the base using a dissecting microscope following removal of surrounding fat and connective tissue. For en face experiments aortic tissues were flattened by a longitudinal cut through one side of the aortic wall cutting through the carotids and the innominant artery until the aorta was split forming a Y-shaped structure.
The uptake and distribution of the tracer on aortic tissue was studied using digital autoradiography method. En face specimens were immediately exposed to super resolution phosphor screens in a Fisher Biotech autoradiography cassette. After overnight exposure at room temperature, the screens were scanned with a Cyclone Phosphor Imager (Perkin Elmer, Downers Grove, Ill.). Images were analyzed using OptiQuant™ 5.0 software. The regions of interest (ROI) were drawn around the lesions on the aortic arch, and the counts in Digital Light Unit (DLU) and surface areas in mm^2 were measured. The DLU was converted to activity in pCi using a set of calibration standards with known activities, which were exposed and scanned on the same screen used for the aorta samples. The percentage injected dose (% ID) was calculated from dividing the activity (pCi) of the lesion by the injected activity. Activity density in % ID/m^2 was calculated and normalized by animal body weight to get % ID×kg/m^2. […]

[2] = tested on: bone-marrow-derived macrophages (BMDMs); format: cell-based; settings: BMDMs
Experimental: (§1) Bone-marrow derived macrophages. Bone-marrow derived macrophages (BMDMs) were isolated from femurs of adult VVT or Rip3^−/− mice and differentiated into macrophages using DMEM supplemented with 10% FBS and 1% penicillin-streptomycin plus either 20% L929 conditioned media or 20 ng/mL mouse M-CSF for 7-10 days. To polarize macrophages to M1 or M2, BMDMs were incubated on day 7 with 1 μg/mL LPS and 100 ng/mL IFNγ or 10 ng/mL IL-4 respectively for 24 h. Damage Associated Molecular Patterns (DAMPs) were obtained by subjecting BMDMs to 3×30 min freeze-thaw cycle or treatment with 100 ng/mL LPS and 50 μM zVAD.fmk for 24 hours, after which the media was collected and added to naïve cells at indicated ratios.
(§2) Cell viability assays. Cell death was determined by measuring lactate dehydrogenase (LDH) release into the media. Briefly, cells were treated with 100 μg/ml oxLDL in the presence or absence of 25 μM zVAD.fmk or 50 μM necrostatin-1 (Nec-1) for 24 hours and media was collected and centrifuged to pellet cell debris. The amount of LDH in media was measured in a kinetic assay by adding PBS containing 0.02% NADH and 0.03% sodium pyruvate and measuring absorbance at 340 nm for 10 minutes at 1 minute intervals. The slope of the curve provides a measure of cell death, which was expressed as fold change relative to control.
as §1, with “Rip3−/−” for “Rip3^−/−”
as §2, with “ug/ml” for “μg/ml”, “uM” for “μM”

[3] = tested on: FADD-deficient variant of human Jurkat T cells treated with TNF-α; settings: SAR study of Teng et al. 2005, relative to Nec-1; cited from earlier work
[4] = tested on: ApoE−/− mice with established atherosclerosis; assay: Atherosclerosis study: time-release pellets in Western diet fed ApoE−/− mice; format: in vivo, mouse
Experimental: Atherosclerosis Studies. All animal experiments were performed in accordance with the Animal Care and Use Committee, University of Ottawa, Canada. Eight week old Apo E^−/− mice (total n=17 mice) were fed an adjusted calories diet (21% fat; 0.2% cholesterol, Harlan Teklad) for 4 weeks to induce atherosclerotic progression. Mice were then injected with time-release placebo or Nec-1s tablets (2 mg/kg/day), which were synthesized by Innovative Research of America, USA. Mice were euthanized after 6 weeks of treatment, perfused with saline and aortic roots were embedded in OCT medium and frozen. Aortic roots were sectioned (10 μm) and stained with hematoxylin and eosin for lesion area and necrotic core quantification, and a minimum of 10 sections per animal were measured across the length of the entire aortic root. For en face aortic lesion quantifications, aortas were dissected removing all branching vessels down to the femoral bifurcation and then sliced ventrally and images of aortas were digitally captured using ImagePro™. Lesion areas within the entire length of the aorta were quantified using Image J™ and expressed relative to the total aortic surface area. Immunohistochemistry for vascular smooth muscle cells was performed using a primary antibody for a-smooth muscle actin (monoclonal, Sigma) conjugated to alkaline phosphatase and visualized using SigmaFAST Red (Sigma). Statistical significance between the two groups were analyzed using Students' t-test (p<0.05).
Atherosclerosis Studies. All animal experiments were performed in accordance with the Animal Care and Use Committee, University of Ottawa, Canada. Eight week old apoE−/− mice (total n=17 mice) were fed an adjusted calories diet (21% fat; 0.2% cholesterol, Harlan Teklad) for 4 weeks to induce atherosclerotic progression. Mice were then injected with time-release placebo or stable Necrostatin-1 (Nec-1)15 tablets (2 mg/kg/day), which were synthesized by Innovative Research of America, USA. Mice were euthanized after 6 weeks of treatment, perfused with saline and aortic roots were embedded in OCT medium and frozen. Aortic roots were sectioned (10 μm) and stained with hematoxylin and eosin for lesion area and necrotic core quantification, and a minimum of 10 sections per animal were measured across the length of the entire aortic root. For en face aortic lesion quantifications, aortas were dissected removing all branching vessels down to the femoral bifurcation and then sliced ventrally and images of aortas were digitally captured using ImageProTM. Lesion areas within the entire length of the aorta were quantified using Image JTM and expressed relative to the total aortic surface area. Immunohistochemistry to visualize macrophages and smooth muscle cells was performed using primary antibodies to CD68 (rat monoclonal, Serotec) or phosho-MLKL (rabbit polyclonal, Abcam) with a secondary conjugated to biotin and α-smooth muscle actin (monoclonal, Sigma) conjugated to alkaline phosphatase and visualized using DAB or SigmaFAST Red (Sigma), respectively. Image J was used to quantify positive staining area and statistical significance between the two groups were analyzed using Students' t-test (p<0.05)

Question: With COc1ccc([C@@H]2[C@@H]3CCc4ccc([123I])cc4C3=NN2C(C)=O)cc1 [8-^123I-Nec-3R] as the molecule, how does the “uptake in atherosclerotic lesions by autoradiography (in words)” value [1] read?
Answer: significant lesion uptake

Question: What does the source list for COC(=O)C[C@H](NC(=O)[C@H](C)NC(=O)[C@@H](NC(=O)OCc1ccccc1)C(C)C)C(=O)CF [zVAD.fmk] (Cbz-Val-Ala-Asp(OMe)-CH2F)?
Answer: cell death (LDH release), fold change relative to control ([2]; 100 μg/mL oxLDL + 25 μM zVAD.fmk, 24 h, mean±SEM): 5.7±0.7 fold; effect on cell death in response to oxLDL (in words) ([2]; oxLDL + pan caspase inhibitor zVAD.fmk 25 μM, 24 h): significantly enhanced cell death

Question: With O=C1NC(=S)NC1Cc1c[nH]c2ccccc12 (centres unmarked) [Nec-1i] as the molecule, how does the “necroptosis inhibitory activity (in words)” value [3] read?
Answer: completely abolished

Question: For COC(=O)C[C@H](NC(=O)[C@H](C)NC(=O)[C@@H](NC(=O)[C@H](Cc1ccc(O)cc1)NC(=O)OCc1ccccc1)C(C)C)C(=O)CF [zYVAD.fmk], which “effect on cell death in response to oxLDL (in words)” value ([2]; co-treatment with caspase-1 inhibitor zYVAD.fmk 20 uM) is on record?
Answer: did not reduce or prevent cell death

Question: Which “atherosclerotic lesion area versus placebo (in words)” value ([4]; Western diet 4 weeks then 2 mg/kg/day for 6 weeks) does the source give for CN1C(=O)NC(Cc2c[nH]c3c(Cl)cccc23)C1=O (centres unmarked) [Nec-1s] here?
Answer: reduced en face lesion areas

Question: What about the “reduction of lesion necrotic core area compared to placebo” value ([4]; aortic sinus, 2 mg/kg/day, 6 weeks) of the same molecule?
Answer: 62%

Question: For CN1C(=O)C(Cc2c[nH]c3c(Cl)cccc23)NC1=S (centres unmarked) [7-Cl-Nec-1], which “necroptosis inhibitory activity (in words)” value [3] is on record?
Answer: increased activity
